These are literature values, as cited in patent US6352974B1, “Oral calcitonin pharmaceutical compositions and methods of making the same” (Eurand International S.p.A., priority 1996, dated 2002).

The conditions of the data set: typical activity.

Salmon calcitonin: the activity entry was “up to 6500 IU/mg”.
